Assay results taken from US20240246941A1, “SUBSTITUTED 4-(3-AMINOPROP-1-YL)AMINOQUINOLINE ANALOGS AS MODULATORS OF MELANOMA-ASSOCIATED ANTIGEN 11 UBIQUITIN LIGASE” (ST. JUDE CHILDREN'S RESEARCH HOSPITAL, INC., priority 2020, published 2024).

These compounds were tested against MAGE-A11:PCF11 (Homo sapiens (Human), UniProt P43364) (assay: TR-FRET single point screening at 15 μM). Conditions: single point TR-FRET screening at 15 μM against MAGE-A11:PCF11.
Assay type: binding
Set-up: unit not given here
From the text: TR-FRET Assays and High-throughput Screen. Terbium-anti-GST antibody, 1 M Tris pH 7.5 1 M MgCl2 and 1 M DTT were purchased from Invitrogen (Carlsbad, CA), BSA was purchased from Sigma (St. Louis, MO). Dimethyl sulfoxide (DMSO) was purchased from Fisher Scientific (Pittsburgh, PA). Black 384-well low volume plates and 384-well polypropylene compound plates were purchased from Corning Incorporated (Tewksbury, MA). The St. Jude FDA drug and Bioactive library (11,293 chemicals), Drug-like library (10,073 chemicals) and Lead-like library (10,041 chemicals) were custom assembled and purchased from commercial sources including Sigma, Microsource (Gaylordsville, CT), selleckchem (Houston, TX), ChemDiv (San Diego, CA), ChemBridge (San Diego, CA), Enamine (Monmouth Jct., NJ), and Life Chemicals (Niagara-on-the-Lake, ON, Canada). They were arrayed (10 mM in DMSO) in 384-well polypropylene compound plates with columns 1, 2, 13 and 14 empty which were reserved for controls.
The TR-FRET assay buffer with a formula of 50 mM Tris pH 7.5, 20 mM MgCl2, 0.1 mg/ml BSA and 1 mM DTT was freshly prepared before each experiment. All TR-FRET assays were performed in black 384-well plates with 20 μl/well assay volume in the TR-FRET assay buffer at room temperature (approximately 25° C.). All peptides or compounds were solubilized in DMSO. To test the competitive activity of peptides or compounds against the interaction between GST-MAGEA11 MHD and FAM-PCF11_4 peptide, 10 μl/well peptide or compound at specified concentration was dispensed into a black 384-well low volume plate, followed by 5 μl/well FAM-PCF11_4 (800 nM), 5 μl/well Tb-anti-GST (20 nM) and GST-MAGEA11 MHD (20 nM). The assay components in each well was then mixed by shaking the plate on an IKA MTS 2/4 digital microtiter plate shaker (IKA Works; Wilmington, NC, USA) at 900 RPM for 1 minute. The plate was further centrifuged in an Eppendorf 5810 centrifuge with an A-4-62 swing-bucket rotor (Eppendorf AG, Hamburg, Germany) at 201 g (1000 rpm) for 30 seconds. The plate was then incubated for 90 min with a lid to avoid light exposure to the assay components. After incubation, the fluorescent emission signals at 520 nm and 490 nm channels of individual wells were measured with a PHERAstar FS plate reader (BMG Labtech; Durham, NC, USA) by using a 340 nm excitation filter, 100 μs delay time, and 200 μs integration time. The TR-FRET fluorescence emission ratio (TR-FRET signal) for each well was presented as 10 000×520 nm/490 nm, which was used directly for curve fitting, or further converted to % Inhibition based on the respective positive and negative controls. The graphic software GraphPad Prism 4.81 (GraphPad Software; La Jolla, CA, USA) was used to generate curves and derive IC50 values of tested peptides or compounds, if applicable.
TR-FRET screen for identifying MAGEA11 small molecule inhibitors was performed as follows. The primary one-concentration screening and subsequent 10 or 20-concentration dose response tests were accomplished with an automated High Throughput Screening system (HighRes Biosolutions, Beverly, MA)^30. In the primary screening, 15 μl/well FAM-PCF11_4 (267 nM) was first dispensed with a Multidrop Combi Reagent Dispenser (Thermo Fisher Scientific, Waltham, MA) to black 384-well low volume assay plates. The plates were spun down with a Velocity11 VSpin microplate centrifuge (Agilent Technologies, Santa Clara, CA). 30 nl/well of 10 mM compound/DMSO solutions, or DMSO alone, were transferred from compound plates (the St. Jude FDA drug and bioactive library, Drug-like library and Lead-like library) or a control plate to the assay plates with a Pin Tool (V&P Scientific, San Diego, CA). The compounds were arrayed in columns 3 to 12 and columns 15 to 24 of compound plates. The controls were arrayed in columns 1, 2, 13 and 14 of a compound plate. […]

MAGE-A11:PCF11, sequence (P43364 218-429): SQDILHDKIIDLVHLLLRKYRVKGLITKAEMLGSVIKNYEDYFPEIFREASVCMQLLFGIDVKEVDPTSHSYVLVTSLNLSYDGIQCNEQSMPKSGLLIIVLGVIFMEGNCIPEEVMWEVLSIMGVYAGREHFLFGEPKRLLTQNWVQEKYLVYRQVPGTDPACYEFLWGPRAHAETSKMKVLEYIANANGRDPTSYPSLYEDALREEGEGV

Compared with `CC(Nc1c2ccccc2nc2ccccc12)C(=O)NC(CC(N)=O)C(=O)O` (stereo not drawn) [SJ000016433], `CCC(C)CNCCCNc1c2ccc(Cl)cc2nc2ccc(OC)cc12` (stereo not drawn) [SJ000361093] is lower in TR-FRET signal: 22.71 for the first, −451.5 for the second.

First: COc1ccc2ncc(S(=O)(=O)c3ccccc3)c(N3CCN(C)CC3)c2c1 [SJ000083947]
Second: COc1ccc2ncc(S(=O)(=O)c3ccccc3)c(N3CCN(c4ccc(F)cc4)CC3)c2c1 [SJ000083978]
The TR-FRET signal of the first is higher: −2.094 for the first, −133.1 for the second.

Compared with `CCOC(=O)c1ccc2ncc(C(=O)OCC)c(NCCN3CCOCC3)c2c1` [SJ000031347], `CCOc1ccc2ncc(C(=O)c3ccccc3)c(N3CCN(CC)CC3)c2c1` [SJ000247283] is lower in TR-FRET signal: 0.6542 for the first, −0.2733 for the second.

Compared with `O=S(=O)(c1ccccc1)c1cnc2ccc(Cl)cc2c1N1CCN(c2ccccc2)CC1` [SJ000083977], `COc1ccc2ncc(S(=O)(=O)c3ccc(C)cc3)c(N3CCN(c4ccccc4)CC3)c2c1` [SJ000117048] is lower in TR-FRET signal: −15.7 for the first, −85.57 for the second.

First: CCCN(CCCNc1c2ccc(Cl)cc2nc2ccc(OC)cc12)Cc1cccn1C [SJ000522987]
Second: CCCN(CCCNc1c2ccc(Cl)cc2nc2ccc(OC)cc12)Cc1cc(C)ccc1C [SJ000520960]
The TR-FRET signal of the first is lower: −302.6 for the first, −119.3 for the second.

Going from `CCCN(CCCNc1c2ccc(Cl)cc2nc2ccc(OC)cc12)Cc1c(F)cccc1OC` [SJ000522733] to `CCCN(CCCNc1c2ccc(Cl)cc2nc2ccc(OC)cc12)Cc1ccc(OC)c(F)c1` [SJ000522963], the TR-FRET signal rises from −187.1 to −177.5.

Compared with `COc1cccc(CN(CCCCNc2ccnc3cc(Cl)ccc23)Cc2ccccc2)c1O` [SJ000312694], `COc1ccc(CN(CCCCNc2ccnc3cc(Cl)ccc23)Cc2ccccc2)cc1` [SJ000522724] is lower in TR-FRET signal: 7.676 for the first, 6.683 for the second.

First: CCc1ccc2ncc(C(=O)c3ccccc3)c(N3CCN(CC)CC3)c2c1 [SJ000247281]
Second: CCOc1ccc2ncc(S(=O)(=O)c3ccc(OC)cc3)c(N3CCN(CC)CC3)c2c1 [SJ000083971]
The TR-FRET signal of the first is higher: −2.261 for the first, −6.389 for the second.

Going from `Fc1ccc(CN2CCC(Nc3ccnc4cc(Cl)ccc34)CC2)cc1F` [SJ000523089] to `COc1cccc(CN2CCC(Nc3ccnc4cc(Cl)ccc34)CC2)c1` [SJ000523107], the TR-FRET signal rises from −1.958 to 3.149.

Going from `CCCN(CCCNc1c2ccc(Cl)cc2nc2ccc(OC)cc12)Cc1ccc([N+](=O)[O-])o1` [SJ000523022] to `COc1ccc2nc3cc(Cl)ccc3c(NCCCNCC3CCOC3)c2c1` (stereo not drawn) [SJ000521003], the TR-FRET signal falls from −329.7 to −442.3.

Going from `Clc1ccc2c(NCCCCN(Cc3ccccc3)Cc3ccc[nH]3)ccnc2c1` [SJ000312692] to `Clc1ccc2c(NCCCCN(Cc3ccccc3)Cc3cccs3)ccnc2c1` [SJ000312686], the TR-FRET signal falls from 28.28 to 25.05.

Going from `Cc1ccc(S(=O)(=O)c2cnc3ccccc3c2N2CCN(c3cc(C)ccc3C)CC2)cc1` [SJ000117084] to `Cc1cc(N2CCN(CC(O)COCC(C)C)CC2)c2ccccc2n1` (stereo not drawn) [SJ000227654], the TR-FRET signal falls from 2.443 to −3.251.

Compared with `Cc1ccc(CN(CCCCNc2ccnc3cc(Cl)ccc23)Cc2ccccc2)s1` [SJ000312687], `CCCCN(CCCC)CC(=O)Nc1c2c(nc3ccccc13)N(C)CC2` [SJ000331523] is lower in TR-FRET signal: 20.71 for the first, 2.503 for the second.

Same assay, conditions: single point TR-FRET screening of quinoline compounds against MAGE-A11:PCF11; 15 μM

First: Cc1ccc(CNCCCNc2ccnc3cc(C(F)(F)F)ccc23)o1 [SJ000361109]
Second: FC(F)(F)c1ccc2c(NCCCNCc3cccnc3)ccnc2c1 [SJ000521042]
The TR-FRET signal of the first is lower: 14.45 for the first, 15.04 for the second.

Compared with `Oc1ccccc1CN(CCCNc1ccnc2cc(Cl)ccc12)Cc1ccccc1` [SJ000361167], `COc1ccccc1CN(CCCNc1ccnc2cc(Cl)ccc12)Cc1ccccc1` [SJ000522722] is lower in TR-FRET signal: 19.27 for the first, 4.43 for the second.

Compared with `CCCN(CCCNc1ccnc2cc(Cl)ccc12)Cc1cncc(Br)c1` [SJ000523004], `CCCN(CCCNc1ccnc2cc(Cl)ccc12)Cc1cnn(C)c1` [SJ000523009] is higher in TR-FRET signal: 4.828 for the first, 10.06 for the second.

First: CCCN(CCCNc1ccnc2cc(Cl)ccc12)Cc1cc(OC)ccc1F [SJ000522996]
Second: CCCN(CCCNc1ccnc2cc(Cl)ccc12)Cc1ccc2c(c1)OCO2 [SJ000522753]
The TR-FRET signal of the first is higher: 26.66 for the first, 18.75 for the second.

Going from `CCCN(CCCNc1ccnc2cc(C(F)(F)F)ccc12)Cc1ccccc1[N+](=O)[O-]` [SJ000523071] to `CCCN(CCCNc1ccnc2cc(C(F)(F)F)ccc12)Cc1ccccn1` [SJ000361252], the TR-FRET signal rises from −7.745 to 15.16.

First: Clc1ccc2c(NCCCN(CCCc3ccccc3)Cc3ccccc3)ccnc2c1 [SJ000361185]
Second: Clc1ccc2c(NCCCN(CCc3ccccc3)Cc3ccccc3)ccnc2c1 [SJ000357580]
The TR-FRET signal of the first is lower: 6.074 for the first, 14.41 for the second.

First: CC(C)Cc1ccc2c(NCCCNCc3ccco3)ccnc2c1 [SJ000311258]
Second: Clc1ccc2c(NCCCNCc3ccccn3)ccnc2c1 [SJ000523050]
The TR-FRET signal of the first is higher: 8.874 for the first, 4.744 for the second.

First: Cn1cc(CNCCCNc2ccnc3cc(Cl)ccc23)c2ccccc21 [SJ000521020]
Second: Clc1ccc2c(NCCCNCc3nccs3)ccnc2c1 [SJ000521023]
The TR-FRET signal of the first is higher: 18.47 for the first, 4.988 for the second.

Compared with `CCCN(CCCNc1ccnc2cc(Cl)ccc12)Cc1[nH]cnc1C` [SJ000523010], `CCCN(CCCNc1ccnc2cc(Cl)ccc12)CCCSC` [SJ000357576] is lower in TR-FRET signal: 12.05 for the first, 7.824 for the second.

First: CCc1ccc(CN(CCCNc2ccnc3cc(Cl)ccc23)Cc2ccccc2)cc1 [SJ000520442]
Second: Clc1ccc2c(NCCCN(Cc3ccccc3)Cc3ccncc3)ccnc2c1 [SJ000312679]
The TR-FRET signal of the first is higher: 18.89 for the first, −5.573 for the second.

First: Cc1cc(C)c(CN(CCCNc2ccnc3cc(Cl)ccc23)Cc2ccccc2)c(C)c1 [SJ000361169]
Second: CCCN(CCCNc1c2ccc(Cl)cc2nc2ccc(OC)cc12)Cc1c(C)cc(C)cc1C [SJ000520934]
The TR-FRET signal of the first is higher: 31.19 for the first, −46.32 for the second.

Going from `FC(F)(F)c1ccc2c(NCCCNCC3CC3)ccnc2c1` [SJ000361108] to `Clc1ccc2c(NCCCNCC3CC3)ccnc2c1` [SJ000361101], the TR-FRET signal falls from 22.81 to 11.47.

Going from `COc1ccc2nc3cc(Cl)ccc3c(NCCCNCc3ccccc3N)c2c1` [SJ000523031] to `CCCN(CCCNc1c2ccc(Cl)cc2nc2ccc(OC)cc12)Cc1ccccc1O` [SJ000520926], the TR-FRET signal falls from −57.15 to −91.84.

First: Clc1ccc2c(NCCCNCC3CCOC3)ccnc2c1 (stereo not drawn) [SJ000521038]
Second: COC(=O)CCCCCNCCCNc1ccnc2cc(C(F)(F)F)ccc12 [SJ000521044]
The TR-FRET signal of the first is lower: 0.4026 for the first, 19.59 for the second.

Going from `CCCN(CCCNc1ccnc2cc(C(F)(F)F)ccc12)Cc1ccoc1` [SJ000361267] to `CCCN(CCCNc1ccnc2cc(Cl)ccc12)Cc1ccc(Cl)c([N+](=O)[O-])c1` [SJ000522761], the TR-FRET signal falls from 28.55 to 16.95.

Compared with `CCCN(CCCNc1c2ccc(Cl)cc2nc2ccc(OC)cc12)Cc1ccc(Cl)c(C(F)(F)F)c1` [SJ000522974], `CCCN(CCCNc1c2ccc(Cl)cc2nc2ccc(OC)cc12)Cc1cc(F)ccc1OC` [SJ000520931] is lower in TR-FRET signal: 16.36 for the first, 1.847 for the second.

First: CCCN(CCCNc1c2ccc(Cl)cc2nc2ccc(OC)cc12)Cc1ccc(C)o1 [SJ000520932]
Second: CCCN(CCCNc1c2ccc(Cl)cc2nc2ccc(OC)cc12)Cc1ccc([N+](=O)[O-])cc1 [SJ000520949]
The TR-FRET signal of the first is higher: 0.9854 for the first, −9.039 for the second.
